For five molecules, Kp uu results are on record in patent US11897898B2, “Pyridine macrocycle compounds as ASK1 inhibiting agents” (BIOGEN MA INC., priority 2018, dated 2024).

This data set can be described thus: In vivo brain penetration (rat Kpuu study). As to conditions: brain and plasma (unbound), IV infusion in the carotid artery for four hours, 1 mg/kg, steady state, Kpuu=Cu,b/Cu,p. The method, then:
To evaluate the CNS penetration of the compounds described herein, several compounds were selected for in vivo rat Kpuu studies. In these experiments the compounds are administered via an IV infusion (using N,N-dimethylacetamide:ethanol:1,2-propylene glycol:water in a 1:1:3:5 ratio as the vehicle) in the carotid artery for a period of four hours (1 mg/kg, 0.1 mg/mL) to reach steady state. After this time the plasma and brain concentration levels are quantified, and the values are adjusted by the measured protein binding in plasma and brain homogenate to calculate the Kpuu (see Di, L.; Kerns, E. H. Blood-Brain Barrier in Drug Discovery (Wiley)) according to the equation below. Kpuu=Cu,b/Cu,p • Wherein: • Cu,b=Unbound concentration in brain (C×fu,b). (C=concentration at steady state; fu,b=fraction unbound in brain) • And in which: Cu,p=Unbound concentration in plasma (C×fu,p). (C=concentration at steady state; fu,p=fraction unbound in plasma)
Plasma and brain protein binding values were generated via the Rapid Equilibrium Dialysis method. The compound of interest was incubated in K2EDTA plasma and brain homogenate (homogenized 1:7 (w:v) in 1×PBS) purchased from BioIVT (Westbury, N.Y.), opposite a buffered compartment of 100 mM Potassium phosphate/150 mM Sodium chloride, pH 7.4, at 1 μM for 4 hr and 6 hr respectively. At the conclusion of incubation samples were taken from both matrix and buffered compartments, matrix-matched using blank buffer and matrix, extracted with acetonitrile, diluted with water, and analyzed utilizing an Agilent RapidFire 365 high-throughput LC coupled with MS/MS detection via an AB Sciex 5500. Free fractions (fu) were then calculated by comparing internal standard/analyte peak-area ratios of matrix and buffered compartments. Cross-species brain protein binding was considered to be equivalent for the purposes of calculating free fraction (see Di, L., et al., (2011a) Species Independence in Brain Tissue Binding Using Brain Homogenates, Drug Metab Dispos 39:1270-1277).
Total drug concentration in plasma and brain tissue was measured via well-established bioanalytical extraction (protein precipitation) and detection methods (LC-MS/MS). Brain tissues were homogenized 1:4 (w:v) with 1×PBS in MP Biomedicals Lysing Matrix D tubes via an MP Biomedicals FastPrep-24™ homogenizer and were then extracted alongside plasma samples by matrix-matching with blank K2EDTA plasma (purchased from BioIVT), followed by protein crash/extraction with acetonitrile, supernatant dry down under nitrogen, and reconstitution with an acidified aqueous/organic mixture before being measured against a calibration curve of the compound of interest prepared in plasma, matrix-matched with blank brain homogenate (generated with brains purchased from BioIVT), and similarly extracted. Reconstituted extracts were then analyzed via LC-MS/MS (AB Sciex 5500) utilizing a binary HPLC setup (Shimadzu LC-20ADvp) and reverse-phase chromatography gradient (ACE 3 C18-AR). Peak area ratios and a 1/x^2 regression fit were used to generate sample concentration values that, combined with plasma and brain protein binding values, were used to generate free drug concentration values and partitioning coefficient (Kpuu).
In the case of `C[C@H]1CCCOc2ncc(Br)cc2C(=O)Nc2cccc(n2)-c2nncn21` (single isomer, unassigned) [Compound 1], the Kp uu at 4 h is ≥ 0.1. As for `C[C@H]1CCCOc2ncc(C#N)cc2C(=O)Nc2cccc(n2)-c2nncn21` [Compound 38, (S)-10-Methyl-4-oxo-1^4H-6-oxa-3-aza-2(2,6),5(3,2)-dipyridina-1(3,4)-triazolacyclodecaphane-5^5-carbonitrile], the figure is < 0.1; as for `C[C@H]1CCCOc2ncc(C(F)(F)F)cc2C(=O)Nc2cccc(n2)-c2nncn21` (single isomer, unassigned) [Compound 41], ≥ 0.1. For the molecule `C[C@H]1CCCOc2ncc(-c3ccncc3)cc2C(=O)Nc2cccc(n2)-c2nncn21` [Compound 17, (S)-10-Methyl-5^5-(pyridin-4-yl)-1^4H-6-oxa-3-aza-2(2,6),5(3,2)-dipyridina-1(3,4)-triazolacyclodecaphan-4-one], the Kp uu at 4 h was ≥ 0.1.

In the case of `C[C@H]1CCCOc2ncccc2C(=O)Nc2cccc(n2)-c2nncn21` (single isomer, unassigned) [Compound 4], the Kp uu at 4 h is ≥ 0.1.
